Source: paper PMC10385824, “Antiproliferative and Tubulin-Destabilising Effects of 3-(Prop-1-en-2-yl)azetidin-2-Ones and Related Compounds in MCF-7 and MDA-MB-231 Breast Cancer Cells” (Pharmaceuticals, 2023)
pIC50: −log10 of the molar value. Where two headings read alike, the source gives them in different places.

Assays:
[1] = test system: purified bovine brain tubulin; assay: Tubulin polymerization assay (light scattering, BK006 kit); format: biochemical; conditions: compound at 10 μM; relative to vehicle
Summary of the method: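 Purified bovine brain tubulin (3 mg/mL) in PIPES 80 mM pH 6.9, EGTA, MgCl2, 1 mM GTP, 10% glycerol incubated at 37 °C with compound at 10 µM or vehicle (1% DMSO or EtOH). Assembly followed turbidimetrically at 340 nm; values are means of two independent assays.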

CCRF-CEM = assay: NCI-60 SRB screen, leukemia; format: cell-based; conditions: Homo sapiens, five dose 0.01–100 µM, 48 h, read-out: GI50
HL-60(TB) = assay: NCI-60 SRB screen, leukemia; format: cell-based, human; conditions: Homo sapiens
K-562 = assay: NCI-60 SRB screen, leukemia; format: cell-based, human; conditions: Homo sapiens, K562, 48 h; read-out: GI50
MOLT-4 = assay: NCI-60 SRB screen, leukemia; format: cell-based, human; conditions: Homo sapiens; MOLT-4; five dose 0.01–100 µM, 48 h; read-out: GI50
RPMI-8226 = assay: NCI-60 SRB screen, leukemia; format: cell-based, human; conditions: Homo sapiens; RPMI-8226; five dose 0.01–100 µM, 48 h; read-out: GI50
SR = assay: NCI-60 SRB screen, leukemia; format: cell-based, human; conditions: Homo sapiens, five dose 0.01–100 µM, 48 h, read-out: GI50
NCI-H460 = assay: NCI-60 SRB screen, non-small cell lung cancer; format: cell-based, human; conditions: Homo sapiens; NCI-H460; five dose 0.01–100 µM, 48 h; read-out: GI50
NCI-H552 = assay: NCI-60 SRB screen, non-small cell lung cancer; format: cell-based, human; conditions: Homo sapiens; NCI-H552; five dose 0.01–100 µM, 48 h; read-out: GI50
SF295 = assay: NCI-60 SRB screen, CNS cancer; format: cell-based, human; conditions: Homo sapiens, SF-295; SF295; five dose 0.01–100 µM, 48 h; read-out: GI50
SF539 = assay: NCI-60 SRB screen, CNS cancer; format: cell-based, human; conditions: Homo sapiens, SF-539; SF539; five dose 0.01–100 µM, 48 h; read-out: GI50
SNB-19 = assay: NCI-60 SRB screen, CNS cancer; format: cell-based, human; conditions: Homo sapiens; SNB-19; five dose 0.01–100 µM, 48 h; read-out: GI50
U251 = assay: NCI-60 SRB screen, CNS cancer; format: cell-based, human; conditions: Homo sapiens, U-251; U251; five dose 0.01–100 µM, 48 h; read-out: GI50
DU-145 = assay: NCI-60 SRB screen, prostate cancer; format: cell-based, human; conditions: Homo sapiens; DU-145; five dose 0.01–100 µM, 48 h; read-out: GI50
MALME-3M = assay: NCI-60 SRB screen, melanoma; format: cell-based, human; conditions: Homo sapiens; MALME-3M; five dose 0.01–100 µM, 48 h; read-out: GI50
MDA-MB-435 = assay: NCI-60 SRB screen, melanoma; format: cell-based, human; conditions: Homo sapiens; MDA-MB-435; five dose 0.01–100 µM, 48 h; read-out: GI50
OVCAR-5 = assay: NCI-60 SRB screen, ovarian cancer; format: cell-based, human; conditions: Homo sapiens; OVCAR-5; five dose 0.01–100 µM, 48 h; read-out: GI50
NCI/ADR-RES = assay: NCI-60 SRB screen, ovarian cancer; format: cell-based, human; conditions: Homo sapiens, five dose 0.01–100 µM, 48 h, read-out: GI50
SK-OV-3 = assay: NCI-60 SRB screen, ovarian cancer; format: cell-based, human; conditions: Homo sapiens; SK-OV-3; five dose 0.01–100 µM, 48 h; read-out: GI50
SN12C = assay: NCI-60 SRB screen, renal cancer; format: cell-based, human; conditions: Homo sapiens, five dose 0.01–100 µM, 48 h, read-out: GI50
TK-10 = assay: NCI-60 SRB screen, renal cancer; format: cell-based, human; conditions: Homo sapiens; TK-10; five dose 0.01–100 µM, 48 h; read-out: GI50
MDA-MB-231/ATCC = assay: NCI-60 SRB screen, breast cancer; format: cell-based, human; conditions: Homo sapiens, 48 h
HS 578T = assay: NCI-60 SRB screen, breast cancer; format: cell-based; conditions: Homo sapiens; HS 578T; five dose 0.01–100 µM, 48 h; read-out: GI50
T-47D = assay: NCI-60 SRB screen, breast cancer; format: cell-based, human; conditions: Homo sapiens, T47D; T-47D; five dose 0.01–100 µM, 48 h; read-out: GI50
[2] = test system: NCI 60 human cancer cell line panel; assay: NCI 60 cell line screen (SRB), panel values

Structure (SMILES): C=C(C)C1C(=O)N(c2cc(OC)c(OC)c(OC)c2)C1c1ccc(OC)cc1 (stereo not shown) [9h, 4-(4-Methoxyphenyl)-1-(3,4,5-trimethoxyphenyl)-3-(prop-1-en-2-yl)azetidin-2-one]
- Fold Reduction in Vmax [1]: 1.81
- GI50 (CCRF-CEM): 37.5 nM
- GI50 (HL-60(TB); HL-60(TB), five dose 0.01–100 µM, 48 h): 33.1 nM
- GI50 (HL-60(TB); HL-60, NCI screen): < 34 nM
- GI50 (K-562): 41 nM
- GI50 (MOLT-4): 39.7 nM
- GI50 (RPMI-8226): 39.9 nM
- GI50 (SR): 38.5 nM
- GI50 (NCI-H460): 35.6 nM
- GI50 (NCI-H552): 22.2 nM
- GI50 (SF295): 43 nM
- GI50 (SF539): 35.2 nM
- GI50 (SNB-19): 67.5 nM
- GI50 (U251): 36 nM
- GI50 (DU-145): 29.1 nM
- GI50 (MALME-3M): > 100000 nM
- GI50 (MDA-MB-435): 294 nM
- GI50 (OVCAR-5): 98.3 nM
- GI50 (NCI/ADR-RES): 21.3 nM
- GI50 (SK-OV-3): 38.1 nM
- GI50 (SN12C): 50.3 nM
- GI50 (TK-10): 96.5 nM
- GI50 (MDA-MB-231/ATCC; MDA-MB-231/ATCC, five dose 0.01–100 µM, read-out: GI50): 32.2 nM
- pIC50 (MDA-MB-231/ATCC; MDA-MB-231, obtained from NCI, five concentrations 0.01–100 μM, read-out: Antiproliferative Activity IC50): 7.50
- GI50 (HS 578T): 39.1 nM
- GI50 (T-47D): 26500 nM
- CC50 ([2]; Homo sapiens, 60 cell, 9 h, read-out: LC50): > 100000 nM
- GI50 ([2]; Homo sapiens, 60 cell, read-out: Mean GI50, mean over all NCI 60 cell lines): < 91.2 nM
- CC50 ([2]; Homo sapiens, 60 cell, read-out: Mean LC50): 87100 nM
- IC (TGI (total growth inhibition)) ([2]; Homo sapiens, 60 cell, read-out: Mean TGI): 15500 nM
- GI50 ([2]; read-out: Mean GI50, mean over all NCI 60 cell lines): 58.9 nM
